Our source for the IC50 values is patent US20230009608A1, “GRK2 INHIBITORS AND USES THEREOF” (Cygnal Therapeutics, Inc., priority 2020, published 2023).

The structures appear in SMILES notation.

In one test the target is T1, GRK2 (Homo sapiens, UniProt P25098).
T1 construct: purchased SignalChem A14-10G
T1 sequence (P25098 1-689): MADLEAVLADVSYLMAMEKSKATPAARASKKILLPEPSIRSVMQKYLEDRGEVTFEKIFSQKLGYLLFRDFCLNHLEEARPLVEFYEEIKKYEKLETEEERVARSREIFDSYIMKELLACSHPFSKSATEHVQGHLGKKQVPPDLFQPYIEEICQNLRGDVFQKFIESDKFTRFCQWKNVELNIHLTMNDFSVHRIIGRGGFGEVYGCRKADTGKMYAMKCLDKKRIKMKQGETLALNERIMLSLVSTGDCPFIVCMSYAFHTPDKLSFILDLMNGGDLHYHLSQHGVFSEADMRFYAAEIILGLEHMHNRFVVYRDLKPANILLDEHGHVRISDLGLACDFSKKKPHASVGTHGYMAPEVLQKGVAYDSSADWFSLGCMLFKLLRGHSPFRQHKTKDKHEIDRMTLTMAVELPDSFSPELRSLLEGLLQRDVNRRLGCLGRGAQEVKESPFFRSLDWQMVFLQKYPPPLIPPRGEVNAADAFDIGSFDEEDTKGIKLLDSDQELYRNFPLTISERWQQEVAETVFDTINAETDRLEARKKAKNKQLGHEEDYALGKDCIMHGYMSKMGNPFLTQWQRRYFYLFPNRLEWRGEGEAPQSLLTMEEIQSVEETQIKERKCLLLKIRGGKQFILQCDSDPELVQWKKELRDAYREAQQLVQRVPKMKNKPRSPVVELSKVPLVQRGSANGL
The test can be described thus: ADPGlo GRK2 Inhibition Assay (Example 8). Format: biochemical. The settings on record: 7.5 nM GRK2, 10 μM ATP, ADP-Glo; read-out: GRK2 IC50 (nM) (Example 8). An outline of the steps:
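GRK2 (15 nM 2× enzyme solution) was preincubated 15 min with compound, then reacted 180 min at room temperature with 2× mix of 20 μM ATP plus GRKtide in HEPES pH 7.5, MgCl2, Tween-20, DTT. ADP was detected by ADP-Glo luminescence. Percent inhibition was normalised to enzyme and no-enzyme controls, with dose-response curves from threefold dilutions starting at 100 μM.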
For `Cc1cccnc1CNC(=O)c1cccc(NCc2nnc(-c3ccncn3)n2C)c1` [compound 11], the IC50 is 14 nM.
In the case of `Cn1c(CNc2cccc(C(=O)NCc3ccncc3Cl)c2)nnc1-c1ccncn1` [compound 13], the half-inhibitory concentration (IC50) was found to be 9.1 nM.
Consider `CN1CCC(NC(=O)c2cccc(NCc3nnc(-c4ccncn4)n3C)c2)c2ccccc21` (centres unmarked) [compound 16], for which the half-maximal inhibitory concentration (IC50) came to 37 nM.
As for `Cn1c(CNc2cccc(C(=O)NCc3ccnc(OCC(F)(F)F)c3)c2)nnc1-c1ccncn1` [compound 19], the IC50 was determined as 17 nM.
The same measure, in the same setting: the result for `CCC[C@H](NC(=O)c1cccc(NCc2nnc(-c3ccncn3)n2C)c1)c1ccccn1` [compound 21] reads 67 nM; that for `C[C@H](NC(=O)c1cccc(NCc2nnc(-c3ccncn3)n2C)c1)c1cccnc1` [compound 22], 420 nM.
For the compound `Cn1c(CNc2cccc(C(=O)NCc3cccc4cccnc34)c2)nnc1-c1ccncn1` [compound 24], the IC50 is 61 nM.
For `COc1cccc([C@@H](C)NC(=O)c2cccc(NCc3nnc(-c4ccncn4)n3C)c2)c1` [compound 27], the half-maximal inhibitory concentration (IC50) was 12 nM.
Consider `COc1cccc2c1CC[C@H]2NC(=O)c1cccc(NCc2nnc(-c3ccncn3)n2C)c1` [compound 30], for which the IC50 was 15 nM.
In the case of `Cn1c(CNc2cccc(C(=O)N[C@@H]3COCc4ccccc43)c2)nnc1-c1ccncn1` [compound 31], the IC50 turned out to be 22 nM.
Turning to `CC1Cc2cc(CNC(=O)c3cccc(NCc4nnc(-c5ccncn5)n4C)c3)ccc2O1` (centres unmarked) [compound 32], the IC50 is 22 nM.
Take `Cn1ccnc1[C@@H](NC(=O)c1cccc(NCc2nnc(-c3ccncc3)[nH]2)c1)C1CC1` [compound 34]: the IC50 came to 10 nM.
As to `Cc1cc2c(cc1CNC(=O)c1cccc(NCc3nnc(-c4ccncn4)n3C)c1)OCCO2` [compound 36], the IC50 was found to be 0.5 nM.
For the compound `Cc1cccc2ncc(CNC(=O)c3cccc(NCc4nnc(-c5ccncn5)n4C)c3)n12` [compound 37], the IC50 stood at 0.79 nM.
For `Cc1cccc(C(CO)NC(=O)c2cccc(NCc3nnc(-c4ccncn4)n3C)c2)c1` (centres unmarked) [compound 39], the IC50 amounted to 1.1 nM.
In the case of `Cn1c(CNc2cccc(C(=O)NCc3ccc4nccn4c3)c2)nnc1-c1ccncn1` [compound 40], the half-inhibitory concentration (IC50) was 1.7 nM.
The same measure, in the same setting: under `CCOc1ccc(C(CO)NC(=O)c2cccc(NCc3nnc(-c4ccncn4)n3C)c2)cn1` (centres unmarked) [compound 41] stands 1.8 nM; under `Cn1c(CNc2cccc(C(=O)NCc3ccc(-n4nccn4)cc3)c2)nnc1-c1ccncn1` [compound 42], 2.1 nM; under `Cn1c(CNc2cccc(C(=O)NCc3cccc(C#N)c3)c2)nnc1-c1ccncn1` [compound 43], 2.7 nM.
Turning to `Cc1ccc2ncc(CNC(=O)c3cccc(NCc4nnc(-c5ccncn5)n4C)c3)n2c1` [compound 44], the IC50 came out at 2.8 nM.
The same measure, in the same setting: under `Cc1ccn2c(CNC(=O)c3cccc(NCc4nnc(-c5ccncn5)n4C)c3)cnc2c1` [compound 45] stands 3 nM.
For `Cc1ccc(C(CO)NC(=O)c2cccc(NCc3nnc(-c4ccncn4)n3C)c2)cc1` (centres unmarked) [compound 46], the IC50 came to 3.3 nM.
On to `Cn1c(CNc2cccc(C(=O)NCc3cnccc3Cl)c2)nnc1-c1ccncn1` [compound 47], for which the IC50 worked out at 4.3 nM.
Turning to `COc1cccc(C(C)NC(=O)c2cccc(NCc3nnc(-c4ccncn4)n3C)c2)c1` (centres unmarked) [compound 48], the half-inhibitory concentration (IC50) turned out to be 4.4 nM.
Regarding `COc1cccc(C(CO)NC(=O)c2cccc(NCc3nnc(-c4ccncn4)n3C)c2)c1` (centres unmarked) [compound 49], the IC50 worked out at 5.4 nM.
Take `Cn1ccnc1C(NC(=O)c1cccc(NCc2nnc(-c3ccncc3)[nH]2)c1)C1CC1` (centres unmarked) [compound 50]: the half-inhibitory concentration (IC50) amounted to 5.5 nM.
`Cn1nccc1CNC(=O)c1cccc(NCc2nnc(-c3ccncn3)n2C)c1` [compound 51]: the concentration for half-maximal inhibition (IC50) was found to be 5.7 nM.
Turning to `CC(NC(=O)c1cccc(NCc2nnc(-c3ccncn3)n2C)c1)c1c[nH]cn1` (centres unmarked) [compound 52], the half-inhibitory concentration (IC50) was 5.7 nM.
Take `CCS(=O)(=O)c1ccc(CNC(=O)c2cccc(NCc3nnc(-c4ccncn4)n3C)c2)cc1` [compound 53]: the IC50 was determined as 6.2 nM.
The same measure, in the same setting: under `Cn1c(CNc2cccc(C(=O)NCc3ccc(C#N)cc3)c2)nnc1-c1ccncn1` [compound 54] stands 6.3 nM.
As to `Cn1c(CNc2cccc(C(=O)NCc3cnn(-c4ccccc4)n3)c2)nnc1-c1ccncn1` [compound 55], the IC50 stood at 6.5 nM.
As for `Cn1c(CNc2cccc(C(=O)NC3c4ccccc4CC3O)c2)nnc1-c1ccncn1` (centres unmarked) [compound 56], the IC50 amounted to 7.3 nM.
As for `Cn1c(CNc2cccc(C(=O)NCc3ccc4c(c3)CCN4)c2)nnc1-c1ccncn1` [compound 57], the IC50 stood at 9.4 nM.
Turning to `Cn1c(CNc2cccc(C(=O)NCc3ccc(-n4ccnn4)cc3)c2)nnc1-c1ccncn1` [compound 58], the IC50 came out at 9.5 nM.

The test is the same for the next values; noted with them: Enzyme Assay A, ADPGlo (Example 8); read-out: A: Enzymatic GRK2: IC50 (nM) (Example 8).
With `Cn1c(CNc2cccc(C(=O)NCc3ccc(F)cc3F)c2)nnc1-c1ccncn1`, the IC50 worked out at 15 nM.
Regarding `Cn1c(CNc2cccc(C(=O)NCc3cc(F)ccc3F)c2)nnc1-c1ccncn1`, the IC50 is 27 nM.
Same read-out and setting: the result for `COc1ccc(F)cc1CNC(=O)c1cccc(NCc2nnc(-c3ccncn3)n2C)c1` reads 15 nM; that for `Cn1c(CNc2cccc(C(=O)N[C@@H](CF)c3ccccc3)c2)nnc1-c1ccncn1`, 97 nM.
For `Cn1c(CNc2cccc(C(=O)NC(CO)c3ccccc3F)c2)nnc1-c1ccncn1` (centres unmarked), the half-inhibitory concentration (IC50) amounted to 60 nM.
The same measure, in the same setting: under `Cn1c(CNc2cccc(C(=O)NC3CCCOc4ccccc43)c2)nnc1-c1ccncn1` (centres unmarked) stands 92 nM; under `Cc1cc(CNC(=O)c2cccc(NCc3nnc(-c4ccncn4)n3C)c2)c(C)n1-c1ccccc1`, 15 nM; under `Cn1c(CNc2cccc(C(=O)NCc3nc4ccccc4[nH]3)c2)nnc1-c1ccncn1`, 100 nM.
Still for that read-out and setting: under `Cn1c(CNc2cccc(C(=O)NC(c3ccccc3)C(C)(C)CO)c2)nnc1-c1ccncn1` (centres unmarked) stands 880 nM; under `COc1cccc(C2(NC(=O)c3cccc(NCc4nnc(-c5ccncn5)n4C)c3)CC2)c1F`, 23 nM; under `O=C(NCc1ccccn1)c1cccc(NCc2nnc(-c3ccncc3)[nH]2)c1`, 36 nM.
Same read-out and setting: the result for `Cn1c(CNc2cccc(C(=O)NCc3ccc(Br)cn3)c2)nnc1-c1ccncn1` reads 140 nM; that for `Cc1cc(CNC(=O)c2cccc(NCc3nnc(-c4ccncn4)n3C)c2)no1`, 110 nM.
Consider `Cc1cnc(CNC(=O)c2cccc(NCc3nnc(-c4ccncn4)n3C)c2)cn1`, for which the IC50 worked out at 150 nM.
On the same count and under the same terms, under `Cn1c(CNc2cccc(C(=O)NCc3c[nH]cn3)c2)nnc1-c1ccncn1` stands 110 nM; under `Cc1cnc(CNC(=O)c2cccc(NCc3nnc(-c4ccncn4)n3C)c2)nc1`, 580 nM.
For the compound `CCS(=O)(=O)c1ccc(CNC(=O)c2cccc(NCc3nnc(-c4ccncn4)n3C)c2)nc1`, the IC50 was found to be 100 nM.
Turning to `Cn1c(CNc2cccc(C(=O)NCc3ccc(S(C)(=O)=O)cn3)c2)nnc1-c1ccncn1`, the IC50 worked out at 240 nM.
On to `CC(NC(=O)c1cccc(NCc2nnc(-c3ccncn3)n2C)c1)c1nnc2ccccn12` (centres unmarked), for which the IC50 was found to be 260 nM.
Same read-out and setting: under `CN(C)C[C@@H](NC(=O)c1cccc(NCc2nnc(-c3ccncn3)n2C)c1)c1ccccc1` stands 210 nM; under `Cn1c(CNc2cccc(C(=O)NCc3ncc(Cl)cn3)c2)nnc1-c1ccncn1`, 240 nM.
In the case of `Cn1c(CNc2cccc(C(=O)NC(CCO)c3ccc(F)cc3)c2)nnc1-c1ccncn1` (centres unmarked), the IC50 stood at 52 nM.

Broadly, the IC50 is the concentration needed to halve the response being measured.
